# According to patent publication US20040235098A1, “Sulfotransferase sequence variants” (Mayo Foundation for Medical Education and Research, a …, priority 1998, published 2004):
# How the values were obtained:
# SULT1A1*1 [1] = molecular target: T1, SULT1A1*1 (Homo sapiens, UniProt P50225); test: DCNP inhibition of recombinant SULT1A1*1 (COS-1 cell cytosol); format: biochemical; settings: 4 μM 4-nitrophenol, mean±SEM of nine determinations
# T1 construct: made in house; host or cells: COS-1 cells, pCR3.1 vector, unpurified cytosol
# Procedure: (§1) Res. Commun., 198:1119-1127 (1994).
# (§2) Finally, sensitivity of the recombinant proteins to inhibition by DCNP was determined. Sixteen different concentrations of DCNP, ranging from 0.01 to 1000 μM, were tested with each recombinant allozyme.
# SULT1A1*3 [2] = molecular target: T2, SULT1A1*3 (Homo sapiens, UniProt P50225); test: DCNP inhibition of recombinant SULT1A1*3 (COS-1 cell cytosol); format: biochemical; settings: 4 μM 4-nitrophenol, mean±SEM of nine determinations
# T2 construct: made in house; host or cells: COS-1 cells, pCR3.1 vector, unpurified cytosol
# Procedure: as §1, §2
# SULT1A2*1 [3] = molecular target: T3, SULT1A2*1 (Homo sapiens, UniProt P50226); test: DCNP inhibition of recombinant SULT1A2*1 (COS-1 cell cytosol); format: biochemical; settings: 100 μM 4-nitrophenol, mean±SEM of nine determinations
# T3 construct: made in house; host or cells: COS-1 cells, pCR3.1 vector, unpurified cytosol
# Procedure: as §1, §2
# SULT1A2*2 [4] = molecular target: T4, SULT1A2*2 (Homo sapiens, UniProt P50226, I7T/N235T); test: DCNP inhibition of recombinant SULT1A2*2 (COS-1 cell cytosol); format: biochemical; settings: 3000 μM 4-nitrophenol, mean±SEM of nine determinations
# T4 construct: made in house; host or cells: COS-1 cells, pCR3.1 vector, unpurified cytosol
# T4 sequence (P50226 whole entry I7T/N235T): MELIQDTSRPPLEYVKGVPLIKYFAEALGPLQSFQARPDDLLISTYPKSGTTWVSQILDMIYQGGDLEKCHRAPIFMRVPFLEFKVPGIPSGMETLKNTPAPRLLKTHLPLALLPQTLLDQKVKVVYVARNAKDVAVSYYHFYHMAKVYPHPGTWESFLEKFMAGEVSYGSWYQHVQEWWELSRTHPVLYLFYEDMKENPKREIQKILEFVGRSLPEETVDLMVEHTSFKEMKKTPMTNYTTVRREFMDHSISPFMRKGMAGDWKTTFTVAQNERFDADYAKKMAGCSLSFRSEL
# Procedure: as §1, §2
# SULT1A2*3 [5] = molecular target: T5, SULT1A2*3 (Homo sapiens, UniProt P50226, P19L); test: DCNP inhibition of recombinant SULT1A2*3 (COS-1 cell cytosol); format: biochemical; settings: 50 μM 4-nitrophenol, mean±SEM of nine determinations
# T5 construct: made in house; host or cells: COS-1 cells, pCR3.1 vector, unpurified cytosol
# T5 sequence (P50226 whole entry P19L): as the sequence (P50226 whole entry I7T/N235T) above, with T7I, P19L, T235N counted along it
# Procedure: as §1, §2
# SULT1A3 [6] = molecular target: T6, SULT1A3 (Homo sapiens, UniProt P0DMM9); test: DCNP inhibition of recombinant SULT1A3 (COS-1 cell cytosol); format: biochemical; settings: 3000 μM 4-nitrophenol, mean±SEM of nine determinations
# T6 construct: made in house; host or cells: COS-1 cells, pCR3.1 vector, unpurified cytosol
# T6 sequence (P0DMM9 whole entry): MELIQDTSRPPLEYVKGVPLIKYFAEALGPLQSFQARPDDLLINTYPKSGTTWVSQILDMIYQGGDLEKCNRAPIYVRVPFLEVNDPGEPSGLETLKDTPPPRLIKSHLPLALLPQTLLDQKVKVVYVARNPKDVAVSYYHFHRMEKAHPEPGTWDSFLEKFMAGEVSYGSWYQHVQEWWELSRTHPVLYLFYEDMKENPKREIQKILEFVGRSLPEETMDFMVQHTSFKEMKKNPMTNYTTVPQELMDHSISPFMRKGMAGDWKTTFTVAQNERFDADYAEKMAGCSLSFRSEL
# Procedure: as §1, §2
# TS PST = settings: thermostable phenol-preferring form; cited from earlier work
# TL PST = TL PST (Homo sapiens, UniProt P0DMM9); settings: thermolabile monoamine-preferring form; cited from earlier work
# Sequence of TL PST (P0DMM9 whole entry): as above
# SULT1A2*2 [7] = molecular target: T4, SULT1A2*2; test: Substrate kinetics of recombinant SULT1A2*2; format: biochemical; settings: mean±SEM of nine
# Procedure: as §1
# (§3) Expression constructs for each of the common (frequencies≧1%) allozymes for SULT1A1 and SULT1A2 were used to transfect COS-1 cells. Selected biochemical and physical properties of the expressed enzymes were then determined. Those properties included apparent Km values for the two cosubstrates for the enzyme reaction (4-nitrophenol and PAPS); thermal stability; and sensitivity to inhibition by DCNP. The substrate kinetic experiments were performed in two steps. Initially a wide range of concentrations of 4-nitrophenol that varied over at least three orders of magnitude was tested, followed by detailed study of concentrations close to the apparent Km value for that allozyme. […] Data from these experiments were then used to construct double inverse plots that were used to calculate apparent Km values (Table 5).
# SULT1A3 [8] = molecular target: T6, SULT1A3; test: Substrate kinetics of recombinant SULT1A3; format: biochemical; settings: 3.9 to 3000 μM 4-nitrophenol, mean±SEM of nine
# SULT1A2 = settings: 100 μM 4-nitrophenol; cytosol from six pooled liver samples; three attempts
# Procedure: Human hepatic “surgical waste” tissue was obtained from 61 patients undergoing clinically-indicated hepatectomies or open hepatic biopsies and was stored at −80° C. These frozen hepatic tissue samples were homogenized in 5 mM potassium phosphate buffer, pH 6.5, and centrifuged at 100,000×g for 1 hr to obtain high-speed supernatant (HSS) cytosolic preparations. […] All tissue samples were obtained under guidelines approved by the Mayo Clinic Institutional Review Board.
# Unless otherwise stated, concentrations of 4-nitrophenol and PAPS were 4 μM and 0.4 μM, respectively. […] Enzyme activity was expressed as nmoles of sulfate conjugated product formed per hr of incubation. Protein concentrations were measured by the dye-binding method of Bradford with bovine serum albumin (BSA) as a standard.
# Therefore, 100 μM 4-nitrophenol was used as a substrate with cytosol from six pooled liver samples in an attempt to measure SULT1A2 activity.
# SULT1A1*1 [9] = molecular target: T1, SULT1A1*1; test: Substrate kinetics of recombinant SULT1A1*1; format: biochemical; settings: 4 μM 4-nitrophenol, mean±SEM of nine, read-out: Apparent Km PAPS
# Procedure: as §1, §3
# SULT1A1*2 = SULT1A1*2 (Homo sapiens, UniProt P50225, R213H/V223M); test: Substrate kinetics of recombinant SULT1A1*2; format: biochemical; settings: 4 μM 4-nitrophenol, mean±SEM of nine, read-out: Apparent Km PAPS
# Sequence of SULT1A1*2 (P50225 whole entry R213H/V223M): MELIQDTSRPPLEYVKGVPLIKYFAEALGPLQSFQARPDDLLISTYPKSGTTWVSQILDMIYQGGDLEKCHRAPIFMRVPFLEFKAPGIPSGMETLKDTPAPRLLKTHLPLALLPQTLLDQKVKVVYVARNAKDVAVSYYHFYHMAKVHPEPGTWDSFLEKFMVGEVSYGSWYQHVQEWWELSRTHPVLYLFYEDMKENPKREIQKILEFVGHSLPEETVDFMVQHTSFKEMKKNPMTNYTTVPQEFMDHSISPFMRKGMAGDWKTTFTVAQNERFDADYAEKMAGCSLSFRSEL
# Procedure: as §1, §3
# SULT1A1*3 [10] = molecular target: T2, SULT1A1*3; test: Substrate kinetics of recombinant SULT1A1*3; format: biochemical; settings: 4 μM 4-nitrophenol, mean±SEM of nine, read-out: Apparent Km PAPS
# Procedure: as §1, §3
# SULT1A2*1 [11] = molecular target: T3, SULT1A2*1; test: Substrate kinetics of recombinant SULT1A2*1; format: biochemical; settings: 100 μM 4-nitrophenol, mean±SEM of nine
# Procedure: as §1, §3
# SULT1A2*3 [12] = molecular target: T5, SULT1A2*3; test: Substrate kinetics of recombinant SULT1A2*3; format: biochemical; settings: 50 μM 4-nitrophenol, mean±SEM of nine, read-out: Apparent Km PAPS
# Procedure: as §1, §3
smiles,measurement,setting,value
"O=[N+]([O-])c1cc(Cl)c(O)c(Cl)c1 [DCNP, 2,6-dichloro4-nitrophenol]",IC50,SULT1A1*1 [1],1440 ± 110 nM
same,IC50,SULT1A1*3 [2],1320 ± 270 nM
same,IC50,SULT1A2*1 [3],6.94 ± 0.55 µM
same,IC50,SULT1A2*2 [4],44.4 ± 1.5 µM
same,DCNP Inhibition IC50,SULT1A2*3 [5],most
same,IC50,SULT1A2*3 [5],970 ± 1 nM
same,DCNP Inhibition IC50,SULT1A3 [6],least sensitive to inhibition
same,IC50,SULT1A3 [6],86.9 ± 6 µM
same,sensitivity to inhibition by DCNP,TS PST,sensitive to inhibition
same,sensitivity to inhibition by DCNP,TL PST,relatively insensitive
O=[N+]([O-])c1ccc(O)cc1 [4-nitrophenol],Apparent Km 4-Nitrophenol,SULT1A2*2 [7]; 1.0 to 1000 μM 4-nitrophenol,very high
same,Apparent Km 4-Nitrophenol,SULT1A3 [8],very high
same,SULT1A2 activity (sulfation of 4-nitrophenol),SULT1A2,no activity was detected
"Nc1ncnc2c1ncn2[C@@H]1O[C@H](COP(=O)(O)OS(=O)(=O)O)[C@@H](OP(=O)(O)O)[C@H]1O [PAPS, 3′-phosphoadenosine-5′-phosphosulfate]",Km,SULT1A1*1 [9],1210 ± 20 nM
same,Km,SULT1A1*2,980 ± 30 nM
same,Km,SULT1A1*3 [10],170 ± 20 nM
same,Apparent Km PAPS,SULT1A2*1 [11],approximately an order of magnitude lower
same,Km,SULT1A2*1 [11]; read-out: Apparent Km PAPS,50 ± 1 nM
same,Km,"SULT1A2*2 [7]; 3000 μM 4-nitrophenol, read-out: Apparent Km PAPS",500 ± 1 nM
same,Km,SULT1A2*3 [12],280 ± 6 nM
